Assay results taken from patent US20210301038A1, “POLYSIALIC ACID AND DERIVATIVES THEREOF, PHARMACEUTICAL COMPOSITION AND METHOD OF PRODUCING POLYSIALIC ACID” (Medizinische Hochschule Hannover (MHH), priority 2018, published 2021).

Assays:
[1] = tested on: dissociated hippocampal cultures (primary neural cells); experiment: MTT assay of neural cell viability; format: cell-based, mouse; settings: 30 to 1000 nM, 48 hours, from 10th day in vitro; DP10 effect at 30, 100 and 300 nM
Experimental: Primary hippocampal cells were dissociated from embryonic mice on embryonic day 18. To prepare the primary neural cultures, pregnant C57/BL6J mice were sacrificed by cervical dislocation. Embryos were decapitated, and the hippocampi isolated from brains under sterile conditions and dissected. Enzymatic digestion by 0.25% trypsin/EDTA solution was followed by separation of the cells in serum-containing medium via trituration (10 passes, 1 ml pipette). The primary cells were seeded onto 96-well plates coated with 100 μg/ml poly-lysine and 20 μg/ml laminin. The plating density was 20,000 cells per well. First, 200 μl Dulbecco's modified Eagle's medium (DMEM) was applied per well (supplemented with 1% penicillin-streptomycin and 1% L-glutamine and 2% B27). After incubation for 2 h at 37° C./5% CO2, the medium was exchanged with the pre-warmed Neurobasal medium including 1% penicillin-streptomycin, 1% L-glutamine, and 2% B27. The cells—predominantly neurons and astrocytes—were incubated at 37° C. in 5% CO2 humidified atmosphere for 10 days before administration of reagents.
The assay was performed as described elsewhere with minor modifications (Khalid et al., 2018). Primary neural cells (see above) grown in a 96-well plate were exposed to drugs/vehicles for 48 h at 37° C./5% CO2. After aspiration of culture media, a washing was done with 100 μl phosphate buffered saline (PBS, pH=7.2). Then, PBS was completely removed, and 100 μl phenol red-free pre-warmed Neurobasal media and 50 μl MTT solution (3-(4,5-dimethylthiazol-2-yl)-2,5-diphenyltetrazolium bromide, 5 mg/ml; dissolved in PBS) were added to each well and plates were incubated for 4 h in an incubator. […] DMSO destroyed the cells and released the formazan, which was detected by optical density value at 560 nm, measured using a plate reader. Optical density values for wells containing cells were corrected by subtracting values measured in cell-free wells prepared and treated in the same way as wells containing control cells.

[2] = tested on: NMDAR-EPSCs (GluN1/GluN2B receptors); experiment: Evoked NMDAR-EPSCs, whole-cell patch-clamp of layer V pyramidal neurons in sham- or endoNF-treated mPFC slices; format: cell-based, mouse; settings: for inhibition of NMDAR-EPSC amplitude: sham-treated mPFC slices, DP12 1 μg/ml, then subsequently applied 0.3 μM Ro 25-6981
Excerpt: Each mouse was quickly sacrificed by cervical dislocation. After decapitation, the brain was rapidly removed from the skull and placed in ice-cold artificial cerebrospinal fluid (aCSF) equilibrated with 95% O2/5% CO2, which was composed of the following (in mM): 250 sucrose, 24 NaHCO3, 25 glucose, 2.5 KCl, 1.25 NaH2PO4, 2 CaCl2, and 1.5 MgCl2 (osmolarity 345-350 mOsm/kg, pH 7.4). Using a VT1200S vibratome (Leica, Nussloch, Germany), coronal slices containing the prelimbic and infralimbic cortices (1.9-1.3 mm anterior to bregma) were cut 350 μm or 400 μm thick, for patch clamp and extracellular recordings, respectively, in the same sucrose-containing aCSF. Then, the slices were transferred to a slice holding chamber filled with recording aCSF (osmolarity 300-305 mOsm/kg, pH 7.4) that contained 120 mM NaCl instead of sucrose (Eckhardt et al., 2000) and was continuously gassed with 95% O2/5% CO2.
For endoNF treatment in C57BL/6J mice, slices were first allowed to recover for 20 min at room temperature (22-24° C.) in recording aCSF and were then placed in a 24-well plate to be incubated in 2 ml of aCSF without (sham) or with addition of endoNF (10 μg/ml) at 35° C. for 2 hours. The 24-well plate was installed in a water bath (ED, Julabo, Seelbach, Germany). For field excitatory postsynaptic potential (fEPSP) recordings in knockout and transgenic mice, mPFC slices were incubated in recording aCSF for >2 hours at room temperature before recordings. For patch-clamp recordings in knockout mice, slices were incubated first at 35° C. for 20 min and then at room temperature for >30 min before recordings started. The aCSF was continuously gassed with 95% O2/5% CO2 during all incubation steps and recordings.
For whole-cell patch-clamp recordings, layer V pyramidal neurons were visualized using a SliceScope Pro 6000 equipped with a 40× water-immersion objective and infrared differential interference contrast microscopy (Scientifica, Uckfield, UK). Pyramidal cells were identified by their triangular soma and long apical dendrites, and synaptically evoked excitatory postsynaptic currents (EPSCs) were recorded using patch pipettes (3-5 MQ) fabricated using borosilicate glass capillaries (wall thickness 0.315, length 100, outer diameter 1.5 mm, Hilgenberg) and a DMZ-Zeitz puller (Zeitz Instruments GmbH, Martinsried, Germany). The intracellular pipette solution contained the following (in mM): 140.7 Cs-methane-sulfonate, 5 NaCl, 1 MgCl2, 0.2 EGTA, 10 HEPES, 3 ATP-Mg, 0.3 Na-GTP, and 3.1 QX-314 (osmolarity 295 mOsm/kg, adjusted to pH 7.2 with CsOH). EPSCs were evoked by electrical pulses (0.2 ms) at 0.033 Hz via a glass pipette placed in layer II/III of the mPFC (identically to fEPSPs). Mixed EPSCs showing a fast AMPAR-mediated component and a slow NMDAR-mediated component were recorded at a −60 mV holding potential in whole-cell voltage-clamp mode in normal aCSF. The stimulation intensity was adjusted to evoke mixed EPSCs with amplitudes of approximately 300 pA. The slow NMDAR-mediated component of EPSCs was pharmacologically isolated at −60 mV in modified aCSF containing low Mg^2+ (0.1 mM) and high Ca^2+ (3.2 mM, for adjustment of divalent cation concentrations), the selective antagonist of α-amino-3-hydroxy-5-methyl-4-isoxazolepropionic acid (AMPA)/kainate receptors NBQX (10 μM), and the selective antagonist of γ-aminobutyric acid (GABA)B receptors CGP-55845 (2 μM) (Chen et al., 2003). The washout of Mg^2+ required at least 25 min. Recordings at a holding potential near the resting membrane potential allowed us to obtain stable NMDAR-EPSC recordings from pyramidal cells lasting for 1-1.5 hours. Series resistance (Rs, range 10-25 MΩ) was compensated (20-30%) and monitored continuously. Neurons in which Rs changed by more than 20% throughout the experiment were not included in the analysis. In voltage-clamp mode, membrane potential was not corrected for liquid junction potential. […]

(α(2→8)Neu5Ac)12 [DP12]
effect on neural cell viability [1]: No effects | decrease of NMDAR-EPSC amplitude ([2]; endoNF-treated slices, 1 μg/ml): ~25% | inhibition as % of the mean inhibition produced by Ro 25-6981 applied alone ([2]; endoNF-treated slices, same time window, estimated): ~90% | inhibition of NMDAR-EPSC amplitude [2]: no significant inhibition

C[C@@H](CN1CCC(Cc2ccccc2)CC1)[C@@H](O)c1ccc(O)cc1.O=C(O)/C=C\C(=O)O [Ro 25-6981, (αR,βS)-α-(4-hydroxyphenyl)-β-methyl-4-(phenylmethyl)-1-piperidinepropanol maleate]
effect on neural cell viability [1]: no effects | reduction of EPSC amplitude on subsequent application after DP1 ([2]; endoNF-treated slices, 0.3 μM): ~20% | reduction of NMDAR-EPSC amplitude on subsequent application after DP12 ([2]; endoNF-treated slices, 0.3 μM Ro 25-6981 after DP12): marginally | inhibition of NMDAR-EPSC amplitude [2]: no significant inhibition
